Source: ChEMBL document CHEMBL1135137, “Synthesis and pharmacological characterization of a potent, orally active p38 kinase inhibitor” (Bioorg Med Chem Lett, 2002)
In brackets after ≈: the same amount, converted by molar mass. Each block holds one compound with its values, some of them ahead of it.

Key:
[1] = target: Mitogen-activated protein kinase 14 (Homo sapiens, UniProt Q16539); test: Inhibitory activity against Mitogen-activated protein kinase p38 alpha 2
[2] = system: SW1353; test: TNF-alpha-induced IL-6 production in SW1353 cells; type: functional, cell-based; conditions: Homo sapiens
[3] = system: Mus musculus; test: Effect on LPS-induced TNF-alpha production in mice at 10 mg/kg peroral dose; type: functional; conditions: route oral
[4] = system: Mus musculus; test: Effect on LPS-induced TNF-alpha production in mice at 30 mg/kg peroral dose; type: functional; conditions: route oral
[5] = system: Mus musculus; test: Effect in murine model of arthritis onset in mice immunized with bovine type II collagen at 50 mg/kg; Number of paws affected; type: functional
[6] = system: Mus musculus; test: Effect in murine model of arthritis onset in mice immunized with bovine type II collagen at 50 mg/kg; Histopathology in inflammatory cell; type: functional
[7] = system: Mus musculus; test: Effect in murine model of arthritis onset in mice immunized with bovine type II collagen at 50 mg/kg; Histopathology in interstitial edema; type: functional
[8] = organism: Mus musculus; test: animal or person; conditions: po, read-out: Inhibition
[9] = organism: Mus musculus; test: animal or person; conditions: po, read-out: Inhibition; remark: listed apart in the source
[10] = organism: Mus musculus; test: animal or person; conditions: po, read-out: Inhibition; remark: listed apart in the source
[11] = Solubility at pH 2.0; type: physicochemical; conditions: buffer
[12] = system: Mus musculus; test: Percent inhibition of TNF-alpha-induced IL-6 production at 50 mg/kg peroral dose in mice; type: functional; conditions: route oral
[13] = Solubility at pH 7.5; type: physicochemical; conditions: buffer
[14] = system: Mus musculus; test: Percent inhibition of TNF-alpha-induced IL-6 production at 25 mg/kg peroral dose in mice; type: functional; conditions: route oral
[15] = system: Mus musculus; test: Percent inhibition of TNF-alpha-induced IL-6 production at 10 mg/kg peroral dose in mice; type: functional; conditions: route oral
[16] = system: Mus musculus; test: Percent inhibition of TNF-alpha-induced IL-6 production at 100 mg/kg peroral dose in mice; type: functional; conditions: route oral
[17] = target: Epidermal growth factor receptor (Homo sapiens) (UniProt P00533); test: Inhibition of Epidermal growth factor receptor at 10 uM
[18] = target: Receptor tyrosine-protein kinase erbB-2 (Homo sapiens, UniProt P04626); test: Inhibition of human epidermal growth factor receptor-2
Sequence of Receptor tyrosine-protein kinase erbB-2 (P04626 whole entry): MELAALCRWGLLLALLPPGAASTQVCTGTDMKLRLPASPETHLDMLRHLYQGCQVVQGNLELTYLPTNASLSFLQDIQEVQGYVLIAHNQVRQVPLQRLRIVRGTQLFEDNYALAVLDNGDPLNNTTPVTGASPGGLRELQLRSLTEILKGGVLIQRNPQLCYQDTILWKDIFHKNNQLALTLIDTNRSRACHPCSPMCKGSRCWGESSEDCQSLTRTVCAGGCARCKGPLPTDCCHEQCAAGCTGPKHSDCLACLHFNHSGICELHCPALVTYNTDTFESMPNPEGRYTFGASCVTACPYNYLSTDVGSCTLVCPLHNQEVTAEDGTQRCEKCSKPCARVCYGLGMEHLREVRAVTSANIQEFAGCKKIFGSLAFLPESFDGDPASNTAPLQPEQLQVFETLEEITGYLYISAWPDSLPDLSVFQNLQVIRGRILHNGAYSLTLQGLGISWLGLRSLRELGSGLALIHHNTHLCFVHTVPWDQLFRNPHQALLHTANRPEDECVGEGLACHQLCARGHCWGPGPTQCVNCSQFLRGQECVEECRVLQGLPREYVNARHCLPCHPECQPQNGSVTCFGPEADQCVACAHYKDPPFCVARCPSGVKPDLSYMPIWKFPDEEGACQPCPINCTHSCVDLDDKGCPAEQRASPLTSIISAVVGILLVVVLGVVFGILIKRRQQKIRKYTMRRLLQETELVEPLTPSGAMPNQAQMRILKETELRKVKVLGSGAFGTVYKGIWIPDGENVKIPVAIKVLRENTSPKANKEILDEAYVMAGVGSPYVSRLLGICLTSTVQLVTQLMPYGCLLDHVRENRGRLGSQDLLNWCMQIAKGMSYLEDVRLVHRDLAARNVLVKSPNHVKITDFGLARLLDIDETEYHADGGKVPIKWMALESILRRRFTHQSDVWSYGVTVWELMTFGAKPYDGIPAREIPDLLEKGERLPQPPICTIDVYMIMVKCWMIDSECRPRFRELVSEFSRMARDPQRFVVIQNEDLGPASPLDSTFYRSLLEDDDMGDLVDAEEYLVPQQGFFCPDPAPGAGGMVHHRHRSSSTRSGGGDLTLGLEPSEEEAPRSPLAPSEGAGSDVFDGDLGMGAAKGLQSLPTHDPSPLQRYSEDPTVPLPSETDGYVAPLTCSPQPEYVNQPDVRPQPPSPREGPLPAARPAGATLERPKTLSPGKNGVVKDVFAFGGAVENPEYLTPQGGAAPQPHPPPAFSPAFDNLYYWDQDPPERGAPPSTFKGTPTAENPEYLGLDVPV

[19] = system: Mus musculus; test: Effect on LPS-induced TNF-alpha production in mice at 50 mg/kg peroral dose; type: functional; conditions: route oral
[20] = system: Mus musculus; test: Effect in murine model of arthritis onset in mice immunized with bovine type II collagen at 10 mg/kg; Number of paws affected; type: functional
[21] = system: Mus musculus; test: Effect in murine model of arthritis onset in mice immunized with bovine type II collagen at 3 mg/kg; Number of paws affected; type: functional
[22] = system: Mus musculus; test: Effect in murine model of arthritis onset in mice immunized with bovine type II collagen at 30 mg/kg; Number of paws affected; type: functional
[23] = system: Mus musculus; test: Effect in murine model of arthritis onset in mice immunized with bovine type II collagen at 10 mg/kg; Histopathology in inflammatory cell; type: functional
[24] = system: Mus musculus; test: Effect in murine model of arthritis onset in mice immunized with bovine type II collagen at 10 mg/kg; Histopathology in interstitial edema; type: functional
[25] = system: Mus musculus; test: Effect in murine model of arthritis onset in mice immunized with bovine type II collagen at 30 mg/kg; Histopathology in inflammatory cell; type: functional
[26] = system: Mus musculus; test: Effect in murine model of arthritis onset in mice immunized with bovine type II collagen at 30 mg/kg; Histopathology in interstitial edema; type: functional
[27] = system: Mus musculus; test: Percentage inhibition of LPS-induced TNF-alpha production in mice at 10 mg/kg peroral dose; type: functional; conditions: route oral
[28] = system: Mus musculus; test: Effect in murine model of arthritis onset in mice immunized with bovine type II collagen at 3 mg/kg; Histopathology in interstitial edema; type: functional
[29] = system: Mus musculus; test: Percentage inhibition of LPS-induced TNF-alpha production in mice at 50 mg/kg peroral dose; type: functional; conditions: route oral
[30] = system: Mus musculus; test: Effect on LPS-induced TNF-alpha production in mice at 20 mg/kg peroral dose; type: functional; conditions: route oral
[31] = target: Mitogen-activated protein kinase 11 (Homo sapiens, UniProt Q15759); test: Inhibition of Mitogen-activated protein kinase p38 beta
Sequence of Mitogen-activated protein kinase 11 (Q15759 whole entry): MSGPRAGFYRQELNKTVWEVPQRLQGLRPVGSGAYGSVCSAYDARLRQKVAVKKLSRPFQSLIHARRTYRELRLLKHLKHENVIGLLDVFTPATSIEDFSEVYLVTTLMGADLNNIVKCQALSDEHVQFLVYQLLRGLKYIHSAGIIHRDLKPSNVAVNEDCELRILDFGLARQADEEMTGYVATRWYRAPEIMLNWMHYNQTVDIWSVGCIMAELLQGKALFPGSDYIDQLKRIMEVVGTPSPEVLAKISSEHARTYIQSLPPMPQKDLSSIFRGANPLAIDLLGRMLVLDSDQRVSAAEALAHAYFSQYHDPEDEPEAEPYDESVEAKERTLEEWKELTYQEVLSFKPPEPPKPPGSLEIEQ

[32] = target: Mitogen-activated protein kinase 3 (Homo sapiens) (UniProt P27361); test: Inhibition of Mitogen-activated protein kinase 3 at 5 uM
Sequence of Mitogen-activated protein kinase 3 (Homo sapiens) (P27361 whole entry): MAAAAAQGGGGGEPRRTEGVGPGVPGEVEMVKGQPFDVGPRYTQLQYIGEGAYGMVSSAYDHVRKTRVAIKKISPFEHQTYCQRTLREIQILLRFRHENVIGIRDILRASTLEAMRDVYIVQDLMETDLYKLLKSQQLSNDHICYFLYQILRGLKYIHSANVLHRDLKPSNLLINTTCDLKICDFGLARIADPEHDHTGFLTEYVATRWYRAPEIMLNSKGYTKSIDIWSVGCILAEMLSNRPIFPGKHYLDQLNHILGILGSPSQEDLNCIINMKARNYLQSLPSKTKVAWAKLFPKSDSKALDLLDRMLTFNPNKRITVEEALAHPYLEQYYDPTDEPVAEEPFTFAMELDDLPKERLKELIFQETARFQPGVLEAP

[33] = system: Mus musculus; test: Effect in murine model of arthritis onset in mice immunized with bovine type II collagen at 3 mg/kg; Histopathology in inflammatory cell; type: functional
[34] = system: Mus musculus; test: Percentage inhibition of LPS-induced TNF-alpha production in mice at 20 mg/kg peroral dose; type: functional; conditions: route oral
[35] = target: Protein kinase C beta type (Homo sapiens) (UniProt P05771); test: Inhibition of Protein kinase C beta at 10 uM
Sequence of Protein kinase C beta type (Homo sapiens) (P05771 2-671 limits assumed): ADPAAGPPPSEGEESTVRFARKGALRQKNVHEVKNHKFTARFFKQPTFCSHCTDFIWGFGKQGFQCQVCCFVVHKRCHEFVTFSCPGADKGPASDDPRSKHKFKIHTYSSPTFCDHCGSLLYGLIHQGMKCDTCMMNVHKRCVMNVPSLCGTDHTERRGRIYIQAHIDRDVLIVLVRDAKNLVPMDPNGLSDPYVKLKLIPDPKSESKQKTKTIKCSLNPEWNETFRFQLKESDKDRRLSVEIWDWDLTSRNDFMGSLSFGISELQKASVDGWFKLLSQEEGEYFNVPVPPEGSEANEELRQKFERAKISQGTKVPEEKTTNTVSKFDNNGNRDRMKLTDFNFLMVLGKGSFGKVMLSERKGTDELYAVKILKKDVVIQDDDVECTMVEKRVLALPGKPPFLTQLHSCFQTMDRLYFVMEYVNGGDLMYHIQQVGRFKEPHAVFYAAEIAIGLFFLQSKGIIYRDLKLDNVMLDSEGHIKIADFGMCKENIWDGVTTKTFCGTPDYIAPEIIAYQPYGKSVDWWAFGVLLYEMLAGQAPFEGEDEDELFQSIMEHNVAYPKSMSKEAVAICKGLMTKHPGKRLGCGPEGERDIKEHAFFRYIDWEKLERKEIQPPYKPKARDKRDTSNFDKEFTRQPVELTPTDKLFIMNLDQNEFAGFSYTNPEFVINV

[36] = target: Protein kinase C alpha type (Homo sapiens) (UniProt P17252); test: Inhibition of Protein kinase C alpha at 10 uM
[37] = target: cAMP-dependent protein kinase (PKA) (Homo sapiens) (UniProt P22694+P17612+P22612); test: Inhibition of Protein kinase A at 10 uM; type: protein assay
[38] = target: Protein kinase C gamma type (Homo sapiens) (UniProt P05129); test: Inhibition of Protein kinase C gamma at 10 uM
[39] = target: Mitogen-activated protein kinase 8 (Homo sapiens) (UniProt P45983); test: Inhibition of c-Jun N-terminal kinase 1 at 0.5 uM
Sequence of Mitogen-activated protein kinase 8 (Homo sapiens) (P45983 whole entry): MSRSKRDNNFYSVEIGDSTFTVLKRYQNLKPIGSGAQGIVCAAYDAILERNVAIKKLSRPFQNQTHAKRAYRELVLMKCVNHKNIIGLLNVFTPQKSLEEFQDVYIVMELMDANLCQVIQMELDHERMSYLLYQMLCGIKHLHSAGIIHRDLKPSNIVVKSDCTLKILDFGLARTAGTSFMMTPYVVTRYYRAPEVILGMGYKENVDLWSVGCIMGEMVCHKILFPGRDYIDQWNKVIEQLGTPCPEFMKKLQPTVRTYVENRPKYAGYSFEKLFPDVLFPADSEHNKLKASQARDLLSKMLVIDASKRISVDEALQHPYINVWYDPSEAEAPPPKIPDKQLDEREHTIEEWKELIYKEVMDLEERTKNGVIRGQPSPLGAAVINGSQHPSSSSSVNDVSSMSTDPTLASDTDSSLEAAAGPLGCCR

[40] = target: Tyrosine-protein kinase Fyn (Homo sapiens) (UniProt P06241); test: Inhibition of p59 Fyn tyrosine kinase at 10 uM
Sequence of Tyrosine-protein kinase Fyn (Homo sapiens) (P06241 2-537 limits assumed): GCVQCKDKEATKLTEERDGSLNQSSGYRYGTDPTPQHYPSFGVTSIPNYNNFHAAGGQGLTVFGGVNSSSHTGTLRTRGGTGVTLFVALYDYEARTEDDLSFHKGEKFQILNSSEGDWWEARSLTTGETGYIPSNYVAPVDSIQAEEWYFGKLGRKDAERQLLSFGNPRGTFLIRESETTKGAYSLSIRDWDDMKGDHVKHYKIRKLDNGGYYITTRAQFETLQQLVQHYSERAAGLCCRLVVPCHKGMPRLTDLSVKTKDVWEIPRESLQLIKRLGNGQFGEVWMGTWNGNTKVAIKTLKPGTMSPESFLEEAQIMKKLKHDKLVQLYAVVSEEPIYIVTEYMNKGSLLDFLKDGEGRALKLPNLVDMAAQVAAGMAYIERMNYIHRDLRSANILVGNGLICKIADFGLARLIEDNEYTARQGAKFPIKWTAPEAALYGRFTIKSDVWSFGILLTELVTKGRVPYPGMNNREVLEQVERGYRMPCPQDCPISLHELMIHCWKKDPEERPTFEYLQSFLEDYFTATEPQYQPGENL

[41] = target: Tyrosine-protein kinase Lck (Homo sapiens) (UniProt P06239); test: Inhibition of p59 Lck tyrosine kinase at 10 uM
[42] = target: Tyrosine-protein kinase ABL (Homo sapiens) (UniProt P00519+P42684); test: Inhibition of Abl tyrosine kinase at 5 uM; type: protein assay

Sequence of Mitogen-activated protein kinase 14 (Q16539 whole entry): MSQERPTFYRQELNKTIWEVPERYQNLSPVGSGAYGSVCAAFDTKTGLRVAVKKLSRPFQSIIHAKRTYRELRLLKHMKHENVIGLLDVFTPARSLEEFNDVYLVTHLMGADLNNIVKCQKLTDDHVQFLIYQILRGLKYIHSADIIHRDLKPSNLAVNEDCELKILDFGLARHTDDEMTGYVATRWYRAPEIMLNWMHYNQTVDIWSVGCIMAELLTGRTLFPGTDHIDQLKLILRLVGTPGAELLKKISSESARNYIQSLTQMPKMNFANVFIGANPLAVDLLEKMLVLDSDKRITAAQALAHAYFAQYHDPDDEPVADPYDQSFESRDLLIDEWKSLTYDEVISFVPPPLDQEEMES

- IC50 [1]: 69 nM
- IC50 [2]: > 2500 nM
SMILES: CCCCOc1ccc(Sc2ccc(NC(=O)Nc3cc(C(C)(C)C)nn3C)cc2)cc1

SMILES: C[S+]([O-])c1ccc(-c2nc(-c3ccc(F)cc3)c(-c3ccncc3)[nH]2)cc1 (stereo not given) [SB-203580]
- Activity [3]: 38 ng/mL
- Activity [4]: 13 ng/mL
- Activity [5]: 1
- IC [6]: 0.63
- IO [7]: 0.25
- inhibition in vivo at 100 mg/kg [8]: 80%
- inhibition in vivo at 10 mg/kg [9]: -1.4%
- inhibition in vivo at 30 mg/kg [10]: < 65.4%

- IC50 [1]: 430 nM
SMILES: Cn1nc(C(C)(C)C)cc1NC(=O)Nc1ccc(CCc2ccncc2)cc1

- solubility [11]: 77 µg/mL (≈ 171 µM)
- IC50 [1]: 33 nM
- IC50 [2]: 87 nM
- solubility [13]: 95 µg/mL (≈ 210 µM)
SMILES: CCOC(=O)Nc1ccc(Oc2ccc(NC(=O)Nc3cc(C(C)(C)C)nn3C)cc2)cc1
- inhibition in vivo at 50 mg/kg [12]: 16%

- IC50 [1]: 160 nM
SMILES: Cc1ccc(Oc2ccc(NC(=O)Nc3cc(C(C)(C)C)nn3C)cc2)cc1

- IC50 [1]: 37 nM
- IC50 [2]: 170 nM
SMILES: CC(C)CC(=O)Nc1ccc(Cc2ccc(NC(=O)Nc3cc(C(C)(C)C)nn3C)cc2)cc1

- IC50 [1]: 270 nM
SMILES: Cn1nc(C(C)(C)C)cc1NC(=O)Nc1ccc(Oc2ccccc2)cc1

- solubility [11]: 5160 µg/mL (≈ 13000 µM)
- IC50 [1]: 44 nM
- IC50 [2]: 584 nM
- solubility [13]: 322 µg/mL (≈ 814 µM)
SMILES: Cn1nc(C(C)(C)C)cc1NC(=O)Nc1ccc(CSc2ccncc2)cc1
- inhibition in vivo at 25 mg/kg [14]: 22%
- inhibition in vivo at 50 mg/kg [12]: < 64%
- inhibition in vivo at 10 mg/kg [15]: -15%

- IC50 [1]: 140 nM
SMILES: Cn1nc(C(C)(C)C)cc1NC(=O)Nc1ccc(SCc2ccncc2)cc1

- solubility [11]: 1660 µg/mL (≈ 4350 µM)
- IC50 [1]: 13 nM
- IC50 [2]: 95 nM
- solubility [13]: 655 µg/mL (≈ 1720 µM)
SMILES: Cn1nc(C(C)(C)C)cc1NC(=O)Nc1ccc(Sc2ccncc2)cc1
- inhibition in vivo at 50 mg/kg [12]: < 77%
- inhibition in vivo at 100 mg/kg [16]: < 90%

- IC50 [1]: 38 nM
- IC50 [2]: 1750 nM
SMILES: CCC(=O)Nc1ccc(Cc2ccc(NC(=O)Nc3cc(C(C)(C)C)nn3C)cc2)cc1

- IC50 [1]: 87 nM
- IC50 [2]: 57 nM
SMILES: Cn1nc(C(C)(C)C)cc1NC(=O)Nc1ccc(Cc2ccc(NC(=O)OC(C)(C)C)cc2)cc1

- IC50 [1]: 69 nM
- IC50 [2]: 1060 nM
SMILES: CCC(=O)Nc1ccc(Oc2ccc(NC(=O)Nc3cc(C(C)(C)C)nn3C)cc2)cc1

- IC50 [1]: 183 nM
SMILES: Cn1nc(C(C)(C)C)cc1NC(=O)Nc1ccc(Oc2ccc(C(C)(C)C)cc2)cc1

- solubility [11]: 2000 µg/mL (≈ 5500 µM)
- inhibition [17]: 17%
- IC50 [18]: 4.2 nM
- IC50 [31]: 110 nM
- inhibition [32]: 8%
- inhibition [35]: 5%
- inhibition [36]: 0%
- inhibition [37]: 7%
- inhibition [38]: 21%
- IC50 [2]: 323 nM
- inhibition [39]: 2%
- inhibition [40]: 20%
- inhibition [41]: 8%
- inhibition [42]: 3%
- solubility [13]: 50 µg/mL (≈ 138 µM)
SMILES: Cn1nc(C(C)(C)C)cc1NC(=O)Nc1ccc(Cc2ccncc2)cc1
- Activity [3]: 46.7 ng/mL
- Activity [19]: 5.1 ng/mL
- Activity [20]: 1.9
- Activity [21]: 1.4
- Activity [22]: 0.7
- Activity [23]: 0.78
- Activity [24]: 0.3
- Activity [25]: 0.38
- Activity [26]: 0.2
- inhibition in vivo at 25 mg/kg [14]: 60%
- inhibition in vivo at 10 mg/kg [27]: -24.5%
- inhibition in vivo at 50 mg/kg [12]: 84%
- IO [28]: 0.33
- inhibition in vivo at 50 mg/kg [29]: < 86.5%
- Activity [30]: 19.8 ng/mL
- IC [33]: 0.8
- inhibition in vivo at 20 mg/kg [34]: < 47.1%

- IC50 [1]: 57 nM
- IC50 [2]: 235 nM
SMILES: CCCOc1ccc(Sc2ccc(NC(=O)Nc3cc(C(C)(C)C)nn3C)cc2)cc1

- IC50 [1]: 420 nM
SMILES: Cn1nc(C(C)(C)C)cc1NC(=O)Nc1ccc(Nc2ccncc2)cc1

- IC50 [1]: 200 nM
- IC50 [2]: > 2500 nM
SMILES: Cn1nc(C(C)(C)C)cc1NC(=O)Nc1ccc(Cc2ccc(NC(=O)CCC(=O)O)cc2)cc1

- IC50 [1]: 260 nM
SMILES: Cn1nc(C(C)(C)C)cc1NC(=O)Nc1ccc(OCc2ccncc2)cc1

- IC50 [1]: 110 nM
SMILES: Cn1nc(C(C)(C)C)cc1NC(=O)Nc1ccc(Oc2ccc(OCc3ccccc3)cc2)cc1

- IC50 [1]: 45 nM
- IC50 [2]: 313 nM
SMILES: CC(C)CC(=O)Nc1ccc(Oc2ccc(NC(=O)Nc3cc(C(C)(C)C)nn3C)cc2)cc1

- IC50 [1]: 235 nM
SMILES: CC(=O)Nc1ccc(Oc2ccc(NC(=O)Nc3cc(C(C)(C)C)nn3C)cc2)cc1

- IC50 [1]: 35 nM
- IC50 [2]: 1100 nM
SMILES: Cn1nc(C(C)(C)C)cc1NC(=O)Nc1ccc(Sc2ccc(O)cc2)cc1

- IC50 [1]: 310 nM
SMILES: Cn1nc(C(C)(C)C)cc1NC(=O)Nc1ccc(Oc2ccc(N)cc2)cc1

- IC50 [1]: 54 nM
- IC50 [2]: 162 nM
SMILES: CC(C)OC(=O)Nc1ccc(Oc2ccc(NC(=O)Nc3cc(C(C)(C)C)nn3C)cc2)cc1

- IC50 [1]: 70 nM
SMILES: CC(=O)Nc1ccc(Cc2ccc(NC(=O)Nc3cc(C(C)(C)C)nn3C)cc2)cc1

- IC50 [1]: 290 nM
SMILES: Cn1nc(C(C)(C)C)cc1NC(=O)Nc1ccc(Cc2ccc(N)cc2)cc1
